What was measured:
Conditions in all cases: in vivo, read-out: Fabs
[1] = Fraction absorbed in rat; assay type: ADME
[2] = Fraction absorbed in cynomolgus monkey; assay type: ADME, Macaca fascicularis
[3] = Fraction absorbed in dog; assay type: ADME, Canis lupus familiaris

| SMILES | Fa [1] | Fa [2] | Fa [3] |
| --- | --- | --- | --- |
| COC(=O)N[C@H](C(=O)N1CCC[C@H]1c1ncc(-c2ccc3c(c2)COc2cc4c(ccc5nc([C@@H]6C[C@H](C)CN6C(=O)[C@@H](NC(=O)OC)C(C)C)[nH]c54)cc2-3)[nH]1)C(C)C | 10% |  |  |
| COC[C@H]1C[C@@H](c2ncc(-c3ccc4c(c3)COc3cc5c(ccc6nc([C@@H]7C[C@H](COC)CN7C(=O)[C@@H](NC(=O)OC)C(C)C)[nH]c65)cc3-4)[nH]2)N(C(=O)[C@@H](NC(=O)OC)C(C)C)C1 | 10% |  |  |
| COC[C@H]1C[C@@H](c2nc3ccc4cc5c(cc4c3[nH]2)OCc2cc(-c3cnc([C@@H]4C[C@H](C)CN4C(=O)[C@@H](NC(=O)OC)C(C)C)[nH]3)ccc2-5)N(C(=O)[C@@H](NC(=O)OC)C(C)C)C1 | 11% |  |  |
| COC(=O)N[C@H](C(=O)N1[C@@H](C)CC[C@H]1c1ncc(-c2ccc3c(c2)COc2cc4c(ccc5nc([C@@H]6CC[C@H](C)N6C(=O)[C@@H](NC(=O)OC)C(C)C)[nH]c54)cc2-3)[nH]1)C(C)C | 27% | 53% | 100% |
| COC(=O)N[C@H](C(=O)N1CCC[C@H]1c1ncc(-c2ccc3c(c2)COc2cc4c(ccc5nc([C@@H]6CCCN6C(=O)[C@@H](NC(=O)OC)C(C)C)[nH]c54)cc2-3)[nH]1)C(C)C | 15% |  | 50% |

Second part, the compound after the results:

| Fa [1] | Fa [2] | Fa [3] | SMILES |
| --- | --- | --- | --- |
| 9% | 4% |  | COC[C@H]1C[C@@H](c2ncc(-c3ccc4c(c3)COc3cc5c(ccc6nc([C@@H]7C[C@H](C)CN7C(=O)[C@@H](NC(=O)OC)C(C)C)[nH]c65)cc3-4)[nH]2)N(C(=O)[C@H](NC(=O)OC)c2ccccc2)C1 |
| 13% | 16% | 56% | COC(=O)N[C@H](C(=O)N1CCC[C@H]1c1ncc(-c2ccc3c(c2)COc2cc4c(ccc5nc([C@@H]6CCCN6C(=O)[C@H](NC(=O)OC)c6ccccc6)[nH]c54)cc2-3)[nH]1)C(C)C |
| 4% |  |  | COC(=O)N[C@H](C(=O)N1[C@@H](C)CC[C@H]1c1nc2ccc3cc4c(cc3c2[nH]1)OCc1cc(-c2cnc([C@@H]3C[C@H](C)CN3C(=O)[C@H](NC(=O)OC)c3ccccc3)[nH]2)ccc1-4)C(C)C |
| 12% | 3% |  | COC[C@H]1C[C@@H](c2ncc(-c3ccc4c(c3)COc3cc5c(ccc6nc([C@@H]7CCCN7C(=O)[C@@H](NC(=O)OC)C(C)C)[nH]c65)cc3-4)[nH]2)N(C(=O)[C@H](NC(=O)OC)c2ccccc2)C1 |
| 4% |  |  | COC(=O)N[C@H](C(=O)N1C[C@@H](C)C[C@H]1c1nc2ccc3cc4c(cc3c2[nH]1)OCc1cc(-c2cnc([C@@H]3C[C@H](C)CN3C(=O)[C@H](NC(=O)OC)c3ccccc3)[nH]2)ccc1-4)C(C)C |

Source: ChEMBL document CHEMBL4385622, “Discovery of velpatasvir (GS-5816): A potent pan-genotypic HCV NS5A inhibitor in the single-tablet regimens Vosevi® and Epclusa®” (Bioorg Med Chem Lett, 2019)
